The results in this text go back to patent US20230265116A1, “DEGRADATION OF (EGFR) BY CONJUGATION OF EGFR INHIBITORS WITH E3 LIGASE LIGAND AND METHODS OF USE” (BEIGENE, LTD., priority 2020, published 2023).

In experiment [1] the target is T1, EGFR L858R/T790M/C797S (BaF3-LTC cells) (Homo sapiens, UniProt P00533, C797S/L858R/T790M).
T1 construct: expressed in transfected cells; host or cells: BaF3
Kind of experiment: EGFR degradation HTRF assay, BaF3-LTC cells. It is filed as cell-based. In outline:
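EGFR remaining after a 16 h, 37 °C exposure (8 doses, 5-fold steps from 10 uM final, 0.2% DMSO) was quantified by HTRF antibodies in cell lysate. Percent inhibition relative to DMSO control was fitted by four-parameter logistic to give DC50; Dmax denotes maximal degradation.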
A general note: Time-resolved FRET reads energy transfer from a long-lived donor to a nearby acceptor.

The subject of experiment [2] is EGFR Del19/T790M/C797S (H1975-clone #28). The experiment in a line: EGFR degradation HTRF assay, H1975-clone #28 DTC cells. The format is cell-based. In outline:
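The test uses H1975 clonal lines carrying lentiviral mutant EGFR with endogenous copies removed, treated 16h at 37° C., 5% CO2. EGFR left in the lysate is quantified by HTRF, and DC50 is derived from an 8-dose curve starting at 10 uM final.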

[3] abbreviates: H1975 # 28 DTC cells; maximum percentage of inhibition (degradation).
[4] abbreviates: BaF3-LTC cells; EGFR degradation, IC50 (DC50) from curve fit; read-out: DC50(nM) BaF3-LTC.
The mark [5] stands for this setting: BaF3-LTC cells; maximum percentage of inhibition (degradation); read-out: Dmax (%) BaF3-LTC.
Setting [6] is: H1975 # 28 DTC cells; EGFR degradation, IC50 (DC50) from curve fit; read-out: DC50(nM) H1975 # 28 DTC.

Molecules are shown by their SMILES. Where two headings read alike, the source gives them in different places.

T1 sequence (P00533 25-1210 T790M/C797S/L858R): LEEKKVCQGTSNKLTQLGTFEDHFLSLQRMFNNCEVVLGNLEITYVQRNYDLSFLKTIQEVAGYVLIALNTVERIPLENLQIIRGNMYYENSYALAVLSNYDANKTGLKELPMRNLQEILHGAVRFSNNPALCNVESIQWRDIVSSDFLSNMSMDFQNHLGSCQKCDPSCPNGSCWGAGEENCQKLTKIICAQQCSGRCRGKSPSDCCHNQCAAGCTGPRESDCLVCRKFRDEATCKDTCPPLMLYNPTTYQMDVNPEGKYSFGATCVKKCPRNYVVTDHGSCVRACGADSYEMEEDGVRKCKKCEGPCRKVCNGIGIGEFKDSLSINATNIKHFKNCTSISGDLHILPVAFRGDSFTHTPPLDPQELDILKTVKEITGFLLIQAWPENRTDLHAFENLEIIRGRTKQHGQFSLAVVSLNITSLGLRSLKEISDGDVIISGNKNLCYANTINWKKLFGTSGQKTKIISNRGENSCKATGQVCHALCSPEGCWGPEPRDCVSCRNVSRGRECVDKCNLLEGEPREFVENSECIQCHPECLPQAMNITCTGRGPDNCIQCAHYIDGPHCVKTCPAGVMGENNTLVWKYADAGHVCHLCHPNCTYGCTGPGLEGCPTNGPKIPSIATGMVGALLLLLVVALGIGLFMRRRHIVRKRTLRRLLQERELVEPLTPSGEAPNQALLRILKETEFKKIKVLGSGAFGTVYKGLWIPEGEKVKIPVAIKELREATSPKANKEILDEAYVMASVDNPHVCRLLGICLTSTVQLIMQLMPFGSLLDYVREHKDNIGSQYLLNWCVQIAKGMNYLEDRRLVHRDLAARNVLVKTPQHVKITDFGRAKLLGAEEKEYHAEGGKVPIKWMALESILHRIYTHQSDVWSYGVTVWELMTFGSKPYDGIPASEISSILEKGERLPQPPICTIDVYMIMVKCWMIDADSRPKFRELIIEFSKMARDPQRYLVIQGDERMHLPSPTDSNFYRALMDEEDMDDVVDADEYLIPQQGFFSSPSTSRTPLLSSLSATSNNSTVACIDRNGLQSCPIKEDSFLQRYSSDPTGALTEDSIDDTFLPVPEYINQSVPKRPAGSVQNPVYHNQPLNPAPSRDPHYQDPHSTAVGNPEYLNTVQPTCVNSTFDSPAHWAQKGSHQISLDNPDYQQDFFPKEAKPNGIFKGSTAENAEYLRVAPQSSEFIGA

For `CCc1ccc2c(P(C)(C)=O)c(Nc3nc(Nc4cc(CC)c(N5CCC(N6CCN(C(=O)Cc7ccc8c(c7)oc(=O)n8C7CCC(=O)NC7=O)CC6)CC5)cc4OC)ncc3Br)ccc2n1` (stereo not drawn) [Example 669, 3-(6-(2-(4-(1-(4-((5-bromo-4-((5-(dimethylphosphoryl)-2-ethylquinolin-6-yl)amino)pyrimidin-2-yl)amino)-2-ethyl-5-methoxyphenyl)piperidin-4-yl)piperazin-1-yl)-2-oxoethyl)-2-oxobenzo[d]oxazol-3(2H)-yl)piperidine-2,6-dione], the DC50 (usually the concentration giving 50% degradation) in experiment [1] (read-out: DC50(nM) BaF3-LTC; BaF3-LTC cells; EGFR degradation, IC50 (DC50) from curve fit) was found to be 4.06 nM; in experiment [2] (read-out: DC50(nM) H1975 # 28 DTC; H1975 # 28 DTC cells; EGFR degradation, IC50 (DC50) from curve fit) it was 0.59 nM. The Dmax (in general, the largest share of the target that was removed) in experiment [1] (read-out: Dmax (%) BaF3-LTC, BaF3-LTC cells; maximum percentage of inhibition (degradation)) is 91.1%. In addition, in experiment [2] (setting [3]), the “Dmax (%) H1975 # 28 DTC” value came out at 73.26%.

In the case of `CCc1cc(Nc2ncc(Br)c(Nc3ccc4nc(C)ccc4c3P(C)(C)=O)n2)c(OC)cc1N1CCC(N2CCN(C(=O)Cc3cc(F)c([C@H]4CCC(=O)NC4=O)c(F)c3)CC2)CC1` [Example 670, (R)-3-(4-(2-(4-(1-(4-((5-bromo-4-((5-(dimethylphosphoryl)-2-methylquinolin-6-yl)amino)pyrimidin-2-yl)amino)-2-ethyl-5-methoxyphenyl)piperidin-4-yl)piperazin-1-yl)-2-oxoethyl)-2,6-difluorophenyl)piperidine-2,6-dione], the 50% degradation concentration (DC50) in experiment [1] (setting [4]) was found to be 3.37 nM; in experiment [2] (setting [6]), 0.634 nM. In addition, the greatest degradation seen (Dmax) in experiment [1] (setting [5]) was found to be 88.3%. In addition, the “Dmax (%) H1975 # 28 DTC” value in experiment [2] (setting [3]) was 83.95%.

With `CCc1ccc2c(P(C)(C)=O)c(Nc3nc(Nc4cc(CC)c(N5CCC(N6CCN(C(=O)Cc7cccc8c7n(C)c(=O)n8C7CCC(=O)NC7=O)CC6)CC5)cc4OC)ncc3Br)cc(F)c2n1` (stereo not drawn) [Example 671, 3-(4-(2-(4-(1-(4-((5-bromo-4-((5-(dimethylphosphoryl)-2-ethyl-8-fluoroquinolin-6-yl)amino)pyrimidin-2-yl)amino)-2-ethyl-5-methoxyphenyl)piperidin-4-yl)piperazin-1-yl)-2-oxoethyl)-3-methyl-2-oxo-2,3-dihydro-1H-benzo[d]imidazol-1-yl)piperidine-2,6-dione], the figures for the DC50 in experiment [1] (setting [4]) and in experiment [2] (setting [6]) were 4.85 nM and 0.219 nM, respectively. In experiment [1] (setting [5]), the Dmax was 92.7%. Besides, the “Dmax (%) H1975 # 28 DTC” value in experiment [2] (setting [3]) came out at 75.9%.

On to `CCOc1cc(N2CCC(N3CCN(CCc4cc(F)c([C@H]5CCC(=O)NC5=O)c(F)c4)CC3)CC2)c(CC)cc1Nc1ncc(Br)c(Nc2cc(F)c3ncc(C)cc3c2P(C)(C)=O)n1` [Example 672, (R)-3-(4-(2-(4-(1-(4-((5-bromo-4-((5-(dimethylphosphoryl)-8-fluoro-3-methylquinolin-6-yl)amino)pyrimidin-2-yl)amino)-5-ethoxy-2-ethylphenyl)piperidin-4-yl)piperazin-1-yl)ethyl)-2,6-difluorophenyl)piperidine-2,6-dione], for which the 50% degradation concentration (DC50) came out at 6.6 nM in experiment [1] (setting [4]) and 0.723 nM in experiment [2] (setting [6]). Also, the greatest degradation seen (Dmax) in experiment [1] (setting [5]) was determined as 86.9%. Further, in experiment [2] (setting [3]), the “Dmax (%) H1975 # 28 DTC” value is reported as 87.05%.

`CCc1cc(Nc2ncc(Br)c(Nc3ccc4c(=O)n(CC)ncc4c3P(C)(C)=O)n2)c(OC)cc1N1CCC(N2CCN(C(=O)[C@@H]3CCN(c4cc(F)c([C@H]5CCC(=O)NC5=O)c(F)c4)C3)CC2)CC1` [Example 673, (R)-3-(4-((R)-3-(4-(1-(4-((5-bromo-4-((5-(dimethylphosphoryl)-2-ethyl-1-oxo-1,2-dihydrophthalazin-6-yl)amino)pyrimidin-2-yl)amino)-2-ethyl-5-methoxyphenyl)piperidin-4-yl)piperazine-1-carbonyl)pyrrolidin-1-yl)-2,6-difluorophenyl)piperidine-2,6-dione]: the results for the DC50 in experiment [1] (setting [4]) and in experiment [2] (setting [6]) were 5.79 nM and 0.677 nM, respectively. The Dmax in experiment [1] (setting [5]) amounted to 93.3%. The “Dmax (%) H1975 # 28 DTC” value in experiment [2] (setting [3]) is 85.2%.

On to `CCc1cc(Nc2ncc(Br)c(Nc3ccc4nc(C#N)ccc4c3P(C)(C)=O)n2)c(OC)cc1N1CCC(N2CCN(C(=O)[C@@H]3CCN(c4cc(F)c([C@H]5CCC(=O)NC5=O)c(F)c4)C3)CC2)CC1` [Example 674, 6-((5-bromo-2-((4-(4-(4-((R)-1-(4-((R)-2,6-dioxopiperidin-3-yl)-3,5-difluorophenyl)pyrrolidine-3-carbonyl)piperazin-1-yl)piperidin-1-yl)-5-ethyl-2-methoxyphenyl)amino)pyrimidin-4-yl)amino)-5-(dimethylphosphoryl)quinoline-2-carbonitrile], for which the values for the half-maximal degradation concentration (DC50) in experiment [1] (setting [4]) and in experiment [2] (setting [6]) were 9.62 nM and 2.19 nM, respectively. Further, in experiment [1] (setting [5]), the Dmax is 94.6%. In experiment [2] (setting [3]), the “Dmax (%) H1975 # 28 DTC” value came to 69.95%.

As to `CCc1cc(Nc2ncc(Br)c(Nc3ccc4nc(C)ccc4c3P(C)(C)=O)n2)c(OC)cc1N1CCC(N2CCN(C(=O)[C@@H]3CCN(c4cc(F)c([C@H]5CCC(=O)NC5=O)c(F)c4)C3)[C@H](CO)C2)CC1` [Example 675, (R)-3-(4-((R)-3-((S)-4-(1-(4-((5-bromo-4-((5-(dimethylphosphoryl)-2-methylquinolin-6-yl)amino)pyrimidin-2-yl)amino)-2-ethyl-5-methoxyphenyl)piperidin-4-yl)-2-(hydroxymethyl)piperazine-1-carbonyl)pyrrolidin-1-yl)-2,6-difluorophenyl)piperidine-2,6-dione], the DC50 in experiment [1] (setting [4]) amounted to 4.3 nM; in experiment [2] (setting [6]), 1.01 nM. Further, the maximal degradation (Dmax) in experiment [1] (setting [5]) turned out to be 96.5%. The “Dmax (%) H1975 # 28 DTC” value in experiment [2] (setting [3]) is 82.47%.

Turning to `CCOc1cc(N2CCC(N3CCN(CCc4ccc5c(c4)oc(=O)n5C4CCC(=O)NC4=O)CC3)CC2)c(CC)cc1Nc1ncc(Br)c(Nc2ccc3nc(C)ccc3c2P(C)(C)=O)n1` (stereo not drawn) [Example 676, 3-(6-(2-(4-(1-(4-((5-bromo-4-((5-(dimethylphosphoryl)-2-methylquinolin-6-yl)amino)pyrimidin-2-yl)amino)-5-ethoxy-2-ethylphenyl)piperidin-4-yl)piperazin-1-yl)ethyl)-2-oxobenzo[d]oxazol-3(2H)-yl)piperidine-2,6-diQne], the DC50 in experiment [1] (setting [4]) was determined as 3.14 nM; in experiment [2] (setting [6]), 0.64 nM. In addition, the Dmax in experiment [1] (setting [5]) is 96.4%. Besides, the “Dmax (%) H1975 # 28 DTC” value in experiment [2] (setting [3]) was 88.89%.

With `CCOc1ccc2c(P(C)(C)=O)c(Nc3nc(Nc4cc(CC)c(N5CCC(N6CCN(C(=O)[C@@H]7CCN(c8cc(F)c([C@H]9CCC(=O)NC9=O)c(F)c8)C7)CC6)CC5)cc4OC)ncc3Br)ccc2n1` [Example 677, (R)-3-(4-((R)-3-(4-(1-(4-((5-bromo-4-((5-(dimethylphosphoryl)-2-ethoxyquinolin-6-yl)amino)pyrimidin-2-yl)amino)-2-ethyl-5-methoxyphenyl)piperidin-4-yl)piperazine-1-carbonyl)pyrrolidin-1-yl)-2,6-difluorophenyl)piperidine-2,6-dione], the results for the half-maximal degradation concentration (DC50) in experiment [1] (setting [4]) and in experiment [2] (setting [6]) were 38 nM and 3.83 nM, respectively. The Dmax in experiment [1] (setting [5]) was determined as 94.3%. Moreover, the “Dmax (%) H1975 # 28 DTC” value in experiment [2] (setting [3]) came to 77.05%.

On to `CCOc1cc(N2CCC(N3CCN(C(=O)[C@@H]4CCN(c5cc(F)c([C@H]6CCC(=O)NC6=O)c(F)c5)C4)CC3)CC2)c(CC)cc1Nc1ncc(Br)c(Nc2cc(F)c3ncccc3c2P(C)(C)=O)n1` [Example 678, (R)-3-(4-((R)-3-(4-(1-(4-((5-bromo-4-((5-(dimethylphosphoryl)-8-fluoroquinolin-6-yl)amino)pyrimidin-2-yl)amino)-5-ethoxy-2-ethylphenyl)piperidin-4-yl)piperazine-1-carbonyl)pyrrolidin-1-yl)-2,6-difluorophenyl)piperidine-2,6-dione], for which the DC50 in experiment [1] (setting [4]) was 5.8 nM; in experiment [2] (setting [6]), 1.39 nM. Further, the Dmax in experiment [1] (setting [5]) stood at 94.9%. In experiment [2] (setting [3]), the “Dmax (%) H1975 # 28 DTC” value was found to be 81.53%.

`CCOc1cc(N2CCC(N3CCN(CCc4cc(F)c([C@H]5CCC(=O)NC5=O)c(F)c4)CC3)CC2)c(CC)cc1Nc1ncc(Br)c(Nc2ccc3c(=O)n(CC)ncc3c2P(C)(C)=O)n1` [Example 679, (R)-3-(4-(2-(4-(1-(4-((5-bromo-4-((5-(dimethylphosphoryl)-2-ethyl-1-oxo-1,2-dihydrophthalazin-6-yl)amino)pyrimidin-2-yl)amino)-5-ethoxy-2-ethylphenyl)piperidin-4-yl)piperazin-1-yl)ethyl)-2,6-difluorophenyl)piperidine-2,6-dione]: the DC50 was 22.6 nM in experiment [1] (setting [4]) and 1.75 nM in experiment [2] (setting [6]). Further, the maximal degradation (Dmax) in experiment [1] (setting [5]) is 93.3%. Further, in experiment [2] (setting [3]), the “Dmax (%) H1975 # 28 DTC” value amounted to 83.46%.

As for `CCc1cc(Nc2ncc(Br)c(Nc3ccc4nc(C(C)(C)O)ccc4c3P(C)(C)=O)n2)c(OC)cc1N1CCC(N2CCN(C(=O)[C@@H]3CCN(c4cc(F)c(C5CCC(=O)NC5=O)c(F)c4)C3)CC2)CC1` (stereo partly drawn) [Example 680, 3-(4-((R)-3-(4-(1-(4-((5-bromo-4-((5-(dimethylphosphoryl)-2-(2-hydroxypropan-2-yl)quinolin-6-yl)amino)pyrimidin-2-yl)amino)-2-ethyl-5-methoxyphenyl)piperidin-4-yl)piperazine-1-carbonyl)pyrrolidin-1-yl)-2,6-difluorophenyl)piperidine-2,6-dione], the DC50 in experiment [1] (setting [4]) was found to be 4.96 nM; in experiment [2] (setting [6]), 0.763 nM. Besides, the maximal degradation (Dmax) in experiment [1] (setting [5]) turned out to be 95.1%. Besides, the “Dmax (%) H1975 # 28 DTC” value in experiment [2] (setting [3]) came to 85.2%.
